One data set relates to human AF cells. Put plainly: Stability and processing of Link N in the presence of cells (monolayer, mass spectrometry). The class given is in vitro ADME. Particulars: for peak area intensity of intact Link N in the presence of AF cells: human AF cells in monolayer. The method, then:
(§1) To evaluate the stability of Link N, freshly isolated human cells from NP and AF regions were plated in 6 well culture plates at a density of 250,000 cells per well. Cells were cultured at 37° C., 5% CO2 in 3 mL DMEM, containing 4.5 g/L glucose and supplemented with 10% FCS, 25 mmol/L HEPES, 50 μg/mL gentamicin sulphate, 0.25 μg/mL fungizone, 50 μg/mL L-ascorbate, and 2 mmol/L GlutaMAX. The wells were left for 2 days before exposure to Link-N (1 μg/mL). 200 μL medium was collected at fixed time points (0 h, 6 h, 12 h, 24 h, 36 h, and 48 h). Stability of the peptide was also studied at the same time points in the absence of cells.
25 μL medium samples, collected from the monolayer cultures described above or peptide digests were purified on C18 spin columns according to standard protocols (Harvard Apparatus, Holliston, Mass.). Eluted peptides were reconstituted in 20 μL, 2% acetonitrile and 0.2% formic acid (FA). Samples were injected and quantified using a triple quadropole mass spectrometer TSQ Vantage™ (Thermo Scientific, Waltham, Mass.) equipped with an easy nano-LC system (Thermo Scientific). The mass spectrometer was operated in SRM mode, with both Q1 and Q3 settings at unit resolution (FWHM 0.7 Da). A spray voltage of +1,700 V was used with a heated ion transfer setting of 270° C. for desolvation. Data were acquired using the Xcalibur software (version 2.1). Mobile phases used were A (0.1% FA in water) and B (100% acetonitrile in 0.1% FA). Separation was performed on 10 μm tip, 75 μm×15 cm capillary columns (PicoTip™ emitter, New Objective, Woburn, Mass.) packed with Reprosil-Pur C18-AQ resin (3 μm, Dr. Maich GmbH, Switzerland). 1 μL sample was injected and separation was performed at a flow rate of 300 nL/min using a gradient of 97% mobile phase A for 5 min, 85% A for 8 min, 65% A for 42 min, and 19% A for 45-50 min. […]

The conditions of data set [1]: cited from earlier work.
A short description of data set [2]: LIVE/DEAD cell viability in alginate beads. The class given is cell-based. Particulars: bovine, bovine intervertebral disc NP and AF cells in alginate beads, 1 μg/ml, 18 days, alginate scaffolds, read-out: cellular viability. The method, then:
Coccygeal IVDs from healthy 20-24 month old steers were obtained from a local abattoir at 2-3 hours after slaughter. The IVDs were separated from their adjacent vertebral bodies, and the cells were isolated from the NP and AF regions by sequential digestion with 0.2% Pronase followed by 0.125% Collagenase digestion as previously described. After isolation, the NP and AF cells were either immediately embedded in alginate beads or were plated in 6 well plates for protein extraction.
After isolation the NP and AF cells were resuspended in 1.2% alginate (dissolved in 0.15 M NaCl) at a concentration of 2 million cells per ml. Alginate was chosen to assess the effect on matrix production in the absence of extensive cell proliferation. Droplets of cell suspension were released through an 18-gauge needle into 102 mM calcium chloride solution and were let to polymerize for 10 minutes. Alginate beads were subsequently stabilized for 7 days in culture media (Dulbecco's Modified Eagle Medium high glucose supplemented with 10% fetal bovine serum and antibiotics). […]
Cell viability was assessed at day 18 on the alginate beads using a live/dead fluorescence assay (Live/Dead®, Invitrogen) and visualized by fluorescent microscopy.

A further data set deals with human NP cells. The data set can be described thus: Stability of Link N in the presence of cells (monolayer, mass spectrometry). In kind it is in vitro ADME. Particulars: Link N 1 μg/mL, 37° C. The method, then: as §1
25 μL medium samples, collected from the monolayer cultures described above or peptide digests were purified on C18 spin columns according to standard protocols (Harvard Apparatus, Holliston, Mass.). Eluted peptides were reconstituted in 20 μL, 2% acetonitrile and 0.2% formic acid (FA). Samples were injected and quantified using a triple quadropole mass spectrometer TSQ Vantage™ (Thermo Scientific, Waltham, Mass.) equipped with an easy nano-LC system (Thermo Scientific). The mass spectrometer was operated in SRM mode, with both Q1 and Q3 settings at unit resolution (FWHM 0.7 Da). A spray voltage of +1,700 V was used with a heated ion transfer setting of 270° C. for desolvation. Data were acquired using the Xcalibur software (version 2.1). […]

The target in the next data set is T1, MMP 13 (Homo sapiens, UniProt P45452).
T1 construct: purchased R&D Systems
The data set can be described thus: Proteinase treatment of Link N, peak area by mass spectrometry. In kind it is in vitro ADME. Particulars: 30 minutes, 2 and 24 hours. The method, then:
(§2) 300 μg Link N 1-16 was incubated for 30 minutes, 2 and 24 hours in the presence of 10 different proteinases. The buffer used for MMPs 3, 7, 12, 13, ADAMTS 4,5, HTRA1 was composed of 50 mM Tris-HCl, 200 mM NaCl, 5 mM CaCl2, 0.01% Rapigest. For cathepsins K, B, and L, the digest buffer was composed of 2.5 mM DTT, 0.15% chondroitin sulfate A, 0.1 M sodium acetate, pH 5.5.
(§3) 25 μL medium samples, collected from the monolayer cultures described above or peptide digests were purified on C18 spin columns according to standard protocols (Harvard Apparatus, Holliston, Mass.). Eluted peptides were reconstituted in 20 μL, 2% acetonitrile and 0.2% formic acid (FA). Samples were injected and quantified using a triple quadropole mass spectrometer TSQ Vantage™ (Thermo Scientific, Waltham, Mass.) equipped with an easy nano-LC system (Thermo Scientific). The mass spectrometer was operated in SRM mode, with both Q1 and Q3 settings at unit resolution (FWHM 0.7 Da). A spray voltage of +1,700 V was used with a heated ion transfer setting of 270° C. for desolvation. Data were acquired using the Xcalibur software (version 2.1). Mobile phases used were A (0.1% FA in water) and B (100% acetonitrile in 0.1% FA). Separation was performed on 10 μm tip, 75 μm×15 cm capillary columns (PicoTip™ emitter, New Objective, Woburn, Mass.) packed with Reprosil-Pur C18-AQ resin (3 μm, Dr. Maich GmbH, Switzerland). 1 μL sample was injected and separation was performed at a flow rate of 300 nL/min using a gradient of 97% mobile phase A for 5 min, 85% A for 8 min, 65% A for 42 min, and 19% A for 45-50 min.

A further data set has as its target T2, MMP 3 (Homo sapiens, UniProt P08254).
T2 construct: purchased R&D Systems
Described as above. The class given is in vitro ADME. Particulars: 30 minutes, 2 and 24 hours. The method, then: as §2, §3

Another data set addresses T3, cathepsin K (Homo sapiens, UniProt P43235).
T3 sequence (P43235 115-329): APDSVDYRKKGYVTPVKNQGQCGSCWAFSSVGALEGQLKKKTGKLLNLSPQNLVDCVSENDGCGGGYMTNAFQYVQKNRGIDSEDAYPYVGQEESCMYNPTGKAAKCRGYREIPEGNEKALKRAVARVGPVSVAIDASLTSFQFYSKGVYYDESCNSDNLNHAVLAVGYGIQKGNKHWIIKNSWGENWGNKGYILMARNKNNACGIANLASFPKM
The description is as above. In kind it is in vitro ADME. The method, then:
as §2, §3

For the next data set, the target named is T4, ADAMTS 5 (Homo sapiens, UniProt Q9UNA0).
T4 construct: purchased R&D Systems
The data set is described as above. The class given is in vitro ADME. To be noted: 30 minutes, 2 and 24 hours. The method, then: as §2, §3

Another data set deals with T5, MMP 7 (Homo sapiens, UniProt P09237).
T5 construct: purchased R&D Systems
Described as above. In kind it is in vitro ADME. Particulars: 30 minutes, 2 and 24 hours. The method, then: as §2, §3

In another data set the target is T6, ADAMTS 4 (Homo sapiens, UniProt O75173).
T6 construct: purchased R&D Systems
Described as above. The class given is in vitro ADME. Particulars: 30 minutes, 2 and 24 hours. The method, then:
as §2, §3

Another data set addresses cathepsin L (Homo sapiens, UniProt P07711). The description is as above. The class given is in vitro ADME. Particulars: 30 minutes, 2 and 24 hours. The method, then:
as §2, §3

Another data set deals with cathepsin B (Homo sapiens, UniProt P07858). Described as above. To be noted: 30 minutes, 2 and 24 hours. In kind it is in vitro ADME. The method, then:
as §2, §3

The next data set has as its target T7, MMP 12 (Homo sapiens, UniProt P39900).
T7 construct: purchased R&D Systems
The description is as above. In kind it is in vitro ADME. To be noted: 30 minutes, 2 and 24 hours. The method, then: as §2, §3

For the next data set, the target named is T8, HTRA1 (Homo sapiens, UniProt Q92743).
T8 construct: purchased Thermo Scientific
Described as above. To be noted: 30 minutes, 2 and 24 hours. The class given is in vitro ADME. The method, then: as §2, §3

Results on one sequence are retold here after patent publication US10202420B2, “Methods and compositions for treatment of cartilage and disc tissue pathologies” (THE ROYAL INSTITUTION FOR ADVANCEMENT OF LEARNING/MCGILL …, priority 2013, dated 2019).

Where no end group is shown, it is not given here.

T6 sequence (O75173 213-837): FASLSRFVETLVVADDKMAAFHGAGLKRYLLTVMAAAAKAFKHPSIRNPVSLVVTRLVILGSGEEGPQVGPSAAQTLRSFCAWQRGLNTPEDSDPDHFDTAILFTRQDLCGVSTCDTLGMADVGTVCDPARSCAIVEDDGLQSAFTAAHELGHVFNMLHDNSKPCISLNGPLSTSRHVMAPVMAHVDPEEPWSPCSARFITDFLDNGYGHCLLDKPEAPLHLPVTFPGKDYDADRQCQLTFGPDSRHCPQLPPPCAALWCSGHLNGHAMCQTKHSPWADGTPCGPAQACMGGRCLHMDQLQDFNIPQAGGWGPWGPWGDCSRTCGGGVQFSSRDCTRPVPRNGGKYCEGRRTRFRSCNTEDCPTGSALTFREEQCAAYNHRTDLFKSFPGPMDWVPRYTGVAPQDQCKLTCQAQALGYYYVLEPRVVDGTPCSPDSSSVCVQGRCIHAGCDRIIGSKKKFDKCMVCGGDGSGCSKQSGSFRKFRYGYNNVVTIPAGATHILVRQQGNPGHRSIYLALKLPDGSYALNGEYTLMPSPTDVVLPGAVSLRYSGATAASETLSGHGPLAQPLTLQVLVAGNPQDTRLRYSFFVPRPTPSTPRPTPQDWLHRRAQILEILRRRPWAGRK
T5 sequence (P09237 95-267): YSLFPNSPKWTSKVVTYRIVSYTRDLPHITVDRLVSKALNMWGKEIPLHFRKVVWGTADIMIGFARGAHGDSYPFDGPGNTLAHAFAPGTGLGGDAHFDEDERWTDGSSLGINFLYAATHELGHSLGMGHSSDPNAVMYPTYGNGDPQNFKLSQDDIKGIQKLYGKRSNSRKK
T2 sequence (P08254 100-477): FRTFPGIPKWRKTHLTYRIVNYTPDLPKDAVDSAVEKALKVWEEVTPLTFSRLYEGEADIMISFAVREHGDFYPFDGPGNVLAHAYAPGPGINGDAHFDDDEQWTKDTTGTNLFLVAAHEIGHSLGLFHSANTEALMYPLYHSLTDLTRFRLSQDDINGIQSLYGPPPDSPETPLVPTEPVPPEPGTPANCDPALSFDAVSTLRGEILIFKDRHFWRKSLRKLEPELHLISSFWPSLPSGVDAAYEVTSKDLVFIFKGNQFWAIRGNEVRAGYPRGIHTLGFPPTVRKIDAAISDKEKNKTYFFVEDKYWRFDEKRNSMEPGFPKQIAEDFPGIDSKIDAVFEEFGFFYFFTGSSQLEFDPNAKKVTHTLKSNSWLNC
Chain of cathepsin L (P07711 114-333): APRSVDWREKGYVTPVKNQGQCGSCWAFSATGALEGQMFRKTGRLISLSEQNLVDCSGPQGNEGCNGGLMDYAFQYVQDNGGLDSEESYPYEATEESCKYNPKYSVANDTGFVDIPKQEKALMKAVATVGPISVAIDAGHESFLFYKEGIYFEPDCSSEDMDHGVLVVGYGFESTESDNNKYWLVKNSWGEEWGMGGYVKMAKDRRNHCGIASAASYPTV
T4 sequence (Q9UNA0 262-930): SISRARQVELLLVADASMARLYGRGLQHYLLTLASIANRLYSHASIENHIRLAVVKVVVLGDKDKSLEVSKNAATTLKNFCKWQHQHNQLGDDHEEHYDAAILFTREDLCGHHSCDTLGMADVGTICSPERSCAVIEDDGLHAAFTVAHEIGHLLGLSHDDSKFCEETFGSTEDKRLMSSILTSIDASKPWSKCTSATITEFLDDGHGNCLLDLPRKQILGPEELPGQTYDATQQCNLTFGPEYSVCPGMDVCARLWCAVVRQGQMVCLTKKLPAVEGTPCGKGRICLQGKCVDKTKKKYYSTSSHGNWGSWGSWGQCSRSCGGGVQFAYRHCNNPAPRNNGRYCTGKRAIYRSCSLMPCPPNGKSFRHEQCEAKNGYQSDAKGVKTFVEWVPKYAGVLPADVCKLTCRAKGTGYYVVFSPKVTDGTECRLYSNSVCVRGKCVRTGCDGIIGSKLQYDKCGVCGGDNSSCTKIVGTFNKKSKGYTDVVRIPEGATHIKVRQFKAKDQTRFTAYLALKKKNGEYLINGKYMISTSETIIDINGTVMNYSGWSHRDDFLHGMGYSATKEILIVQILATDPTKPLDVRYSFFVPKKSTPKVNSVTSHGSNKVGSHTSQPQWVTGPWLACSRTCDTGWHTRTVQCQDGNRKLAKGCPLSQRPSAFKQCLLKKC
T7 sequence (P39900 106-470): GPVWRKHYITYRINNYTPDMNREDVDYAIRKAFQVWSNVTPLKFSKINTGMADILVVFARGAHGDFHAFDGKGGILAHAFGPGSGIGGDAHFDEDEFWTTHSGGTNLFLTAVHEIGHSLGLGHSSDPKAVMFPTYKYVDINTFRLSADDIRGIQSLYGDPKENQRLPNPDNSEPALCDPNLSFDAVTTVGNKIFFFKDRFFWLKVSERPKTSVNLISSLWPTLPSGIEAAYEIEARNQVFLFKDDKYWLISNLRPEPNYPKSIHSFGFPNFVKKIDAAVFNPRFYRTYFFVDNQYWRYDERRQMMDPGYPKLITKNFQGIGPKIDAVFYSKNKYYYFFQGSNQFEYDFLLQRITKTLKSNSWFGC
T8 sequence (Q92743 23-480): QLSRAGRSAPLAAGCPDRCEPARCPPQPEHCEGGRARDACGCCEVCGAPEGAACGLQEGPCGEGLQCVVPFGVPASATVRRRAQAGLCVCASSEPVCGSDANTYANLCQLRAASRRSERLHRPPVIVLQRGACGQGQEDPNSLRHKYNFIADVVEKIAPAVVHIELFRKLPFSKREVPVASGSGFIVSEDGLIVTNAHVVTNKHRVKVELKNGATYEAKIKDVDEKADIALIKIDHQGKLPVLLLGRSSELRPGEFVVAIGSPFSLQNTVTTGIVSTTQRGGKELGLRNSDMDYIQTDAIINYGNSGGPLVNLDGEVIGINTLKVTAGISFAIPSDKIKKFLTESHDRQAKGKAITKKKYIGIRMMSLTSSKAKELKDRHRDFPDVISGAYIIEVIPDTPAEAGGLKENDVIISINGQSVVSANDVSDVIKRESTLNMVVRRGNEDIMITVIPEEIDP

On to “DHLSDNYTLDHDRAIH [Link N, DHLSDNYTLDHDRAIH]”, for which the “processed product of Link N identified by tandem mass spectrometry” value in the data set on human AF cells (AF cell culture medium, 964.4 Da peptide) is “a peptide spanning residues 1 to 8 was generated”. In addition, the “peak area intensity of intact Link N in the presence of AF cells” value in the data set on human AF cells (after 48 h) is reported as “only trace amounts were present”; in the data set with human AF cells (by 6 h) it was “decrease”. In data set [1], the “retention of Link N in the human disc” value is “only lost slowly through the endplate and not AF”. The viability (commonly the share of living cells, or the viability signal relative to a control) at 432 h, 1 µg/mL in data set [2] is more than 98%. Moreover, the “time the peptide was stable in the presence of NP cells” value with human NP cells is “at least 48 h”. Also, the “peak area intensity of the 1922 Da Link 1-16 peptide” value at MMP 13 is given as “un-affected”; at MMP 3 it was “un-affected”; on cathepsin K (2 and 24 hours), “hardly detectable”; on cathepsin K (30 minutes), “significantly diminished”; on ADAMTS 5, “un-affected”; on MMP 7 it was “un-affected”. For the same sequence, the “peak area intensity of the 1922 Da Link 1-16 peptide” value on ADAMTS 4, at cathepsin L, on cathepsin B, at MMP 12 and on HTRA1 was “un-affected” in each case. On cathepsin K (2 hours), the “cleavage of Link N by cathepsin K (MRM of Link 1-8 and Link 9-16)” value was “single cleavage between amino acids 8 and 9”.
